The record followed here is PubChem BioAssay AID192 (DTP/NCI, 2004).

The assay concerns BDF1 mice, B16 melanoma ip, median survival T/C. The assay is described as follows: NCI In Vivo Anticancer Drug Screen. Data for tumor model B16 Melanoma (intraperitoneal) in B6D2F1 (BDF1) mice. Particulars: endpoint: median survival time, higher = longer survival. A digest of the protocol: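 In this screen, activity was judged from survival or tumor size in treated versus vehicle-treated tumor-bearing mice, reported as T/C.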

The mark [1] stands for this setting: dose: 100.0 mg/kg/injection, schedule: Q01DX009 (ip), vehicle: saline with Tween-80.
[2] abbreviates: dose: 100.0 mg/kg/injection, schedule: Q04DX003 (ip), vehicle: saline with Tween-80.
The mark [3] stands for this setting: dose: 200.0 mg/kg/injection, schedule: Q01DX009 (ip), vehicle: saline with Tween-80.
[4] abbreviates: dose: 200.0 mg/kg/injection, schedule: Q04DX003 (ip), vehicle: saline with Tween-80.
Where [5] appears, read: dose: 400.0 mg/kg/injection, schedule: Q04DX003 (ip), vehicle: saline with Tween-80.
[6] abbreviates: dose: 25.0 mg/kg/injection, schedule: Q01DX009 (ip), vehicle: saline.
Setting [7] is: dose: 50.0 mg/kg/injection, schedule: Q01DX009 (ip), vehicle: saline.
Setting [8] is: dose: 100.0 mg/kg/injection, schedule: Q01DX009 (ip), vehicle: saline.
[9] abbreviates: dose: 100.0 mg/kg/injection, schedule: Q04DX003 (ip), vehicle: Klucel (hydroxypropylcellulose) (HPC).
[10] abbreviates: dose: 50.0 mg/kg/injection, schedule: Q01DX009 (ip), vehicle: Klucel (hydroxypropylcellulose) (HPC).
Where [11] appears, read: dose: 100.0 mg/kg/injection, schedule: Q01DX009 (ip), vehicle: Klucel (hydroxypropylcellulose) (HPC).
[12] abbreviates: dose: 200.0 mg/kg/injection, schedule: Q01DX009 (ip), vehicle: Klucel (hydroxypropylcellulose) (HPC).
Where [13] appears, read: dose: 0.75 mg/kg/injection, schedule: Q01DX009 (ip), vehicle: saline.
Setting [14] is: dose: 1.5 mg/kg/injection, schedule: Q01DX009 (ip), vehicle: saline.
[15] abbreviates: dose: 2.0 mg/kg/injection, schedule: Q01DX009 (ip), vehicle: saline.
Where [16] appears, read: dose: 6.25 mg/kg/injection, schedule: Q01DX009 (ip), vehicle: Klucel (hydroxypropylcellulose) (HPC).
The mark [17] stands for this setting: dose: 25.0 mg/kg/injection, schedule: Q01DX009 (ip), vehicle: saline with Tween-80.
Setting [18] is: dose: 6.25 mg/kg/injection, schedule: Q01DX009 (ip), vehicle: saline with Tween-80.
The mark [19] stands for this setting: dose: 12.5 mg/kg/injection, schedule: Q01DX009 (ip), vehicle: saline with Tween-80.
Setting [20] is: dose: 400.0 mg/kg/injection, schedule: Q01DX009 (ip), vehicle: Klucel (hydroxypropylcellulose) (HPC).

“And” between values parts separate entries of the source, which are not always exact repeats. Identical values can stand only once. Inconclusive results and toxic doses are left out.

`CCOC(=O)C(=CN1CCCCC1)C(=O)OCC`: the T/C runs as follows: under setting [1], 99 % of control; under setting [2], 95 % of control; under setting [3], 100 % of control; under setting [4], 97 % of control; under setting [5], 95 % of control.
On to `CCCCCCC1N(Cc2ccccc2N(C)C)CCCN1Cc1ccccc1N(C)C`, for which, where the note is “dose: 75.0 mg/kg/injection, schedule: Q01DX009 (ip), vehicle: saline”, the T/C is 97 % of control.
Turning to `Cc1cccc(NC(=O)COc2ccc(Cl)cc2)c1C`, the T/C under setting [6] is 98 % of control, the T/C under setting [7] was 100 % of control, the T/C under setting [1] is 98 % of control and the T/C under setting [8] was 105 % of control.
As to `CC(=O)C(C)C(C)=O`, the T/C was 88 % of control under setting [1]; 90 % of control under setting [3]; 91 % of control (dose: 400.0 mg/kg/injection, schedule: Q01DX009 (ip), vehicle: saline with Tween-80).
As for `CCc1ccccc1NC(=O)NC(C)C`, the T/C was 100 % of control under setting [9]; 110 % of control (dose: 200.0 mg/kg/injection, schedule: Q04DX003 (ip), vehicle: Klucel (hydroxypropylcellulose) (HPC)); 100 % of control (dose: 400.0 mg/kg/injection, schedule: Q04DX003 (ip), vehicle: Klucel (hydroxypropylcellulose) (HPC)).
As to `CC(C)NCC(O)c1ccc(O)c(O)c1` (stereo not drawn), the T/C was 101 % of control (dose: 17.5 mg/kg/injection, schedule: Q01DX009 (ip), vehicle: Klucel (hydroxypropylcellulose) (HPC)); 99 % of control (dose: 35.0 mg/kg/injection, schedule: Q01DX009 (ip), vehicle: Klucel (hydroxypropylcellulose) (HPC)); 94 % of control (dose: 70.0 mg/kg/injection, schedule: Q01DX009 (ip), vehicle: Klucel (hydroxypropylcellulose) (HPC)).
Take `O=C(CCCN1CCN(c2ccccc2)CC1)c1ccc(F)cc1`: the T/C (dose: 12.5 mg/kg/injection, schedule: Q01DX009 (ip), vehicle: saline) is 112 % of control; the T/C under setting [6] is 115 % of control; the T/C under setting [7] is 107 % of control; the T/C under setting [8] was 102 % of control; the T/C (dose: 200.0 mg/kg/injection, schedule: Q01DX009 (ip), vehicle: saline) was 100 % of control.
For `C#CC(C)(O)c1ccccc1` (stereo not drawn), the T/C was 100 % of control under setting [10], 100 % of control under setting [11] and 103 % of control under setting [12].
For the molecule `COc1ccc(N=Cc2ccc(C=Nc3ccc(OC)cc3)cc2)cc1`, the T/C runs as follows: under setting [10], 92 % of control and 94 % of control; under setting [11], 96 % of control; under setting [12], 88 % of control and 93 % of control.
As to `CN1C(=O)CCS(=O)(=O)C1c1ccc(Cl)cc1` (stereo not drawn), the T/C by setting is: (dose: 0.13 mg/kg/injection, schedule: Q01DX009 (ip), vehicle: saline) 109 % of control; (dose: 0.25 mg/kg/injection, schedule: Q01DX009 (ip), vehicle: saline) 101 % of control; (dose: 0.38 mg/kg/injection, schedule: Q01DX009 (ip), vehicle: saline) 95 % of control; (dose: 0.39 mg/kg/injection, schedule: Q01DX009 (ip), vehicle: Klucel (hydroxypropylcellulose) (HPC)) 100 % of control; (dose: 0.5 mg/kg/injection, schedule: Q01DX009 (ip), vehicle: saline) 111 % of control; under setting [13], 98 % of control. Also, the T/C was 115 % of control (dose: 1.0 mg/kg/injection, schedule: Q01DX009 (ip), vehicle: saline); 101 % of control under setting [14]; 109 % of control (dose: 1.56 mg/kg/injection, schedule: Q01DX009 (ip), vehicle: Klucel (hydroxypropylcellulose) (HPC)); 104 % of control under setting [15]; 104 % of control (dose: 3.0 mg/kg/injection, schedule: Q01DX009 (ip), vehicle: saline); 100 % of control (dose: 3.12 mg/kg/injection, schedule: Q01DX009 (ip), vehicle: Klucel (hydroxypropylcellulose) (HPC)). Besides, the T/C under setting [16] was 102 % of control.
Regarding `C[C@]12CC[C@H](OC(=O)Cc3ccc(N(CCCl)CCCl)cc3)CC1=CC[C@@H]1[C@@H]2CC[C@]2(C)C(=O)CC[C@@H]12`, the T/C is 92 % of control under setting [1]; 115 % of control under setting [2]; 97 % of control under setting [3]; 105 % of control under setting [4]; 105 % of control under setting [5].
Take `NC(=O)c1ccc(N)nc1`: the T/C reads like this: (dose: 0.09 mg/kg/injection, schedule: Q01DX009 (ip), vehicle: saline) 100 % of control; (dose: 0.18 mg/kg/injection, schedule: Q01DX009 (ip), vehicle: saline) 86 % of control and 107 % of control; (dose: 0.37 mg/kg/injection, schedule: Q01DX009 (ip), vehicle: saline) 113 % of control and 114 % of control; under setting [13], 102 % of control; under setting [14], 112 % of control and 115 % of control; under setting [15], 100 % of control. Moreover, the T/C was 111 % of control (dose: 3.12 mg/kg/injection, schedule: Q04DX003 (ip), vehicle: saline) and 107 % of control (dose: 6.25 mg/kg/injection, schedule: Q04DX003 (ip), vehicle: saline).
For `[CH3][Pb]([CH3])([CH3])[Cl]`, the T/C under setting [13] was 117 % of control and the T/C under setting [14] was 103 % of control.
With `O=C1C(=O)c2ccccc2C(O)=C1CCCc1ccc(C2CCCCC2)cc1`, the T/C is, setting by setting: under setting [17], 104 % of control; under setting [3], 88 % of control.
Consider `Cc1c(Cl)cc(Cl)c(N)c1Cl`, for which the T/C under setting [2] is 86 % of control, the T/C under setting [4] was 93 % of control and the T/C under setting [5] is 90 % of control.
With `CNCc1ccccc1C(O)c1ccc(Cl)cc1` (stereo not drawn), the T/C by setting is: under setting [16], 102 % of control; (dose: 12.5 mg/kg/injection, schedule: Q01DX009 (ip), vehicle: Klucel (hydroxypropylcellulose) (HPC)) 100 % of control; (dose: 25.0 mg/kg/injection, schedule: Q01DX009 (ip), vehicle: Klucel (hydroxypropylcellulose) (HPC)) 97 % of control; under setting [10], 102 % of control.
Turning to `COc1cc2ccc3c4cc5c(cc4c[n+](C)c3c2cc1OC)OCO5`, under “dose: 10.0 mg/kg/injection, schedule: Q01DX009 (ip), vehicle: Klucel (hydroxypropylcellulose) (HPC)”, the T/C is 104 % of control.
Turning to `O=C(NO)N/N=C/c1ccc(/C=N/NC(=O)NO)cc1`, the T/C was 100 % of control under setting [2], 102 % of control under setting [4] and 90 % of control under setting [5].
With `CCCCCCCCCCCCCCCCCCCCCC(=O)Nc1ccn(C2OC(CO)C(O)C2O)c(=O)n1` (stereo not drawn), the T/C reads like this: under setting [18], 102 % of control; under setting [19], 102 % of control; under setting [17], 119 % of control; under setting [3], 163 % of control.
As for `C/C(=N\[N+](C)(C)C)c1ccc(Br)cc1`, the T/C was 88 % of control under setting [6], 102 % of control under setting [7] and 94 % of control under setting [8].
Take `CC(OC(C)c1ccccc1)c1ccccc1` (stereo not drawn): the T/C by setting is: under setting [11], 113 % of control; under setting [12], 106 % of control; under setting [20], 103 % of control.
Consider `O=C(COc1ccc(Cl)cc1)NCCc1ccccc1`, for which the T/C under setting [11] was 93 % of control, the T/C under setting [12] was 103 % of control and the T/C under setting [20] is 90 % of control.
As for `O=C(/C=C/c1ccncc1)c1ccccc1`, the T/C (dose: 12.5 mg/kg/injection, schedule: Q04DX003 (ip), vehicle: Klucel (hydroxypropylcellulose) (HPC)) is 93 % of control; the T/C (dose: 25.0 mg/kg/injection, schedule: Q04DX003 (ip), vehicle: Klucel (hydroxypropylcellulose) (HPC)) was 110 % of control; the T/C (dose: 50.0 mg/kg/injection, schedule: Q04DX003 (ip), vehicle: Klucel (hydroxypropylcellulose) (HPC)) was 103 % of control; the T/C under setting [9] was 99 % of control.
Regarding `Cc1ccc(N2CSC(=S)N(c3ccc(C)cc3)C2)cc1`, the T/C was 86 % of control and 109 % of control under setting [11]; 86 % of control and 109 % of control under setting [12]; 102 % of control under setting [20].
Consider `Cc1cccc(OCC(=O)O)c1`, for which the T/C is 106 % of control under setting [18], 93 % of control under setting [19] and 86 % of control under setting [17].
Consider `Oc1ccc2ccccc2c1Cc1c(O)ccc2ccccc12`, for which the T/C was 93 % of control under setting [17]; 91 % of control (dose: 50.0 mg/kg/injection, schedule: Q01DX009 (ip), vehicle: saline with Tween-80); 94 % of control under setting [1]; 90 % of control under setting [3].
